Measurements from US8686113B2 (priority 2009, dated 2014).
≈ marks a conversion by molar mass, not a printed value. Where two headings read alike, the source gives them in different places. Non-standard residues stand in square brackets, D forms with d. Residues, ends and D or L forms follow the SMILES beside them. No end group written: not given here. *: point of attachment. NMeR = CN[C@@H](CCCNC(=N)N)C(=O)O; Hyp = O=C(O)[C@@H]1C[C@@H](O)CN1; β3hR = N=C(N)NCCC[C@H](N)CC(=O)O; Orn = NCCC[C@H](N)C(=O)O; Dap = NC[C@H](N)C(=O)O; NHPr = CCCN*

Assays:
[1] = mouse, serum, Half-life in 25% mouse serum, 25% aqueous mouse serum, 37° C., 75 μg/mL peptide
E. coli BL21 A1 = assay type: cell-based, Escherichia coli
Summary of the method: (§1)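 Broth microdilution in 1% TSB with twofold peptide series, final 128 μg/mL to 62.5 ng/mL, against 5×10^6 bacteria/mL stock suspension added 1:1. Incubated 20 h at 37 °C, growth read by absorbance at 595 nm; MIC is the lowest concentration with no growth, determined in triplicate.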

M. luteus 10240 = experiment: Growth inhibition assay (microdilution MIC); assay type: cell-based, Micrococcus luteus; settings: 10240, 20 h
Summary of the method: as §1

Row | Compound | half-life [1] | MIC E. coli BL21 A1 (E. coli BL21 A1; 1% TSB, 20 h at 37° C.) | MIC E. coli BL21 A1 (E. coli BL21 A1; BL21, 20 h) | MIC M. luteus 10240 (M. luteus 10240)
1 | CC[C@H](C)[C@H](NC(=O)[C@H](CCCN)NC(=O)[C@H](CCCNC(=N)N)NC(=O)[C@@H]1CCCN1C(=O)[C@@H]1CCCN1C(=O)[C@H](CCCNC(=N)N)NC(=O)[C@@H]1CCCN1C(=O)[C@H](CCCNC(=N)N)NC(=O)[C@@H]1CCCN1C(=O)[C@H](CC(C)C)NC(=O)[C@H](Cc1ccc(O)cc1)NC(=O)[C@@H]1CCCN1C(=O)[C@@H]1CCCN1C(=O)[C@H](CCCCN)NC(=O)[C@H](CC(=O)O)NC(=O)[C@@H](N)C(C)C)C(=O)N[C@@H](Cc1ccc(O)cc1)C(=O)N[C@@H](CC(N)=O)C(=O)N[C@@H](CCCNC(=N)N)C(N)=O [SEQ ID NO. 61, VDKPPYLPRPRPPROIYNR-NH2] (H-VDKPPYLPRPRPPR[Orn]IYNR-NH2) | 2 h | – | – | –
2 | H-VDKPPYLPRPRPPRRIYN-OH [SEQ ID NO. 28] | 2 h | 64 µg/mL | – | –
3 | CC[C@H](C)[C@H](NC(=O)[C@H](CCCNC(=N)N)NC(=O)[C@H](CCCNC(=N)N)NC(=O)[C@@H]1CCCN1C(=O)[C@@H]1CCCN1C(=O)[C@H](CCCNC(=N)N)NC(=O)[C@@H]1CCCN1C(=O)[C@H](CCCNC(=N)N)NC(=O)[C@@H]1CCCN1C(=O)[C@H](CC(C)C)NC(=O)[C@H](Cc1ccc(O)cc1)NC(=O)[C@@H]1CCCN1C(=O)[C@@H]1CCCN1C(=O)[C@H](CCCCN)NC(=O)[C@H](CC(=O)O)NC(=O)[C@@H](N)C(C)C)C(=O)N[C@@H](Cc1ccc(O)cc1)C(=O)N[C@@H](CC(N)=O)C(=O)N[C@@H](CCCN)C(N)=O [SEQ ID NO. 50, VDKPPYLPRPRPPRRIYNO-NH2] (H-VDKPPYLPRPRPPRRIYN[Orn]-NH2) | 1.5 h | – | – | –
4 | VDKPPYLPRPRPPRPIYNR-NH2 [SEQ ID NO. 60] | 2 h | – | – | –
5 | VDKPPYLPRPRPPRRIYNNR-OH [SEQ ID NO. 14] | < 0.5 h | – | – | –
6 | VDKPPYLPRPRPPRRIYNR-OH [SEQ ID NO. 19] | < 0.5 h | – | – | –
7 | CC[C@H](C)[C@H](NC(=O)[C@H](CCCNC(=N)N)NC(=O)[C@H](CCCNC(=N)N)NC(=O)[C@@H]1CCCN1C(=O)[C@@H]1CCCN1C(=O)[C@H](CCCNC(=N)N)NC(=O)[C@@H]1CCCN1C(=O)[C@H](CCCNC(=N)N)NC(=O)[C@@H]1CCCN1C(=O)[C@H](CC(C)C)NC(=O)[C@H](Cc1ccc(O)cc1)NC(=O)[C@@H]1CCCN1C(=O)[C@@H]1CCCN1C(=O)[C@H](CCCCN)NC(=O)[C@H](CC(=O)O)NC(=O)[C@@H](N)C(C)C)C(=O)N[C@@H](Cc1ccc(O)cc1)C(=O)N[C@@H](CC(N)=O)C(=O)N[C@@H](CNC(C)=O)C(N)=O [compound 52] (H-VDKPPYLPRPRPPRRIYN[Dap](Ac)-NH2; N-terminus assumed) | – | – | 32 µg/mL (≈ 13.5 µM) | 64 µg/mL (≈ 27.1 µM)
8 | H-VDKPPYLPRPRPPRAIYNR-NH2 [compound 43] | – | – | 32 µg/mL | 16 µg/mL
9 | CC[C@H](C)[C@H](NC(=O)C[C@H](CCCNC(=N)N)NC(=O)[C@H](CCCNC(=N)N)NC(=O)[C@@H]1CCCN1C(=O)[C@@H]1CCCN1C(=O)[C@H](CCCNC(=N)N)NC(=O)[C@@H]1CCCN1C(=O)[C@H](CCCNC(=N)N)NC(=O)[C@@H]1CCCN1C(=O)[C@H](CC(C)C)NC(=O)[C@H](Cc1ccc(O)cc1)NC(=O)[C@@H]1CCCN1C(=O)[C@@H]1CCCN1C(=O)[C@H](CCCCN)NC(=O)[C@H](CC(=O)O)NC(=O)[C@@H](N)C(C)C)C(=O)N[C@@H](Cc1ccc(O)cc1)C(=O)N[C@@H](CC(N)=O)C(=O)N[C@@H](CCCNC(=N)N)C(N)=O [SEQ ID NO. 62] (H-VDKPPYLPRPRPPR[β3hR]IYNR-NH2) | 2.5 h | – | – | –
10 | H-VDKPPYLPRPFPPRRIYNR-OH [compound 13] | – | – | 64 µg/mL | 32 µg/mL
11 | H-VDKPPYLPRPRPARRIYNR-NH2 [compound 41] | – | – | 16 µg/mL | 8 µg/mL
12 | CC[C@H](C)[C@H](NC(=O)[C@H](CCCNC(=N)N)NC(=O)[C@H](CCCNC(=N)N)NC(=O)[C@@H]1CCCN1C(=O)[C@@H]1CCCN1C(=O)[C@H](CCCNC(=N)N)NC(=O)[C@@H]1CCCN1C(=O)[C@H](CCCNC(=N)N)NC(=O)[C@@H]1CCCN1C(=O)[C@H](CC(C)C)NC(=O)[C@H](Cc1ccc(O)cc1)NC(=O)[C@@H]1CCCN1C(=O)[C@@H]1CCCN1C(=O)[C@H](CCCCN)NC(=O)[C@H](CC(=O)O)NC(=O)[C@@H](N)CCCN)C(=O)N[C@@H](Cc1ccc(O)cc1)C(=O)N[C@@H](CC(N)=O)C(=O)N[C@@H](CCCNC(=N)N)C(N)=O [compound 82] (H-[Orn]DKPPYLPRPRPPRRIYNR-NH2) | – | – | 8 µg/mL (≈ 3.33 µM) | 8 µg/mL (≈ 3.33 µM)
13 | H-VDKPPYAPRPRPPRRIYNR-NH2 [compound 35] | – | – | 128 µg/mL | 16 µg/mL
14 | H-VDKAPYLPRPRPPRRIYNR-NH2 [compound 32] | – | – | 8 µg/mL | 8 µg/mL
15 | CC[C@@H](C)[C@@H](NC(=O)[C@@H](CCCNC(=N)N)NC(=O)[C@@H](CCCNC(=N)N)NC(=O)[C@H]1CCCN1C(=O)[C@H]1CCCN1C(=O)[C@@H](CCCNC(=N)N)NC(=O)[C@H]1CCCN1C(=O)[C@@H](CCCNC(=N)N)NC(=O)[C@H]1CCCN1C(=O)[C@@H](CC(C)C)NC(=O)[C@@H](Cc1ccc(O)cc1)NC(=O)[C@H]1CCCN1C(=O)[C@H]1CCCN1C(=O)[C@@H](CCCCN)NC(=O)[C@@H](CC(=O)O)NC(=O)[C@H](N)C(C)C)C(=O)N[C@H](Cc1ccc(O)cc1)C(=O)N[C@H](CC(N)=O)C(=O)N[C@H](CCCNC(=N)N)C(N)=O [compound 115] (H-[dV][dD][dK][dP][dP][dY][dL][dP][dR][dP][dR][dP][dP][dR][dR][dI][dY][dN][dR]-NH2) | – | – | 64 µg/mL (≈ 26.8 µM) | 16 µg/mL (≈ 6.69 µM)
16 | CCCNC(=O)[C@H](CCCNC(=N)N)NC(=O)[C@H](CC(N)=O)NC(=O)[C@H](Cc1ccc(O)cc1)NC(=O)[C@@H](NC(=O)[C@H](CCCNC(=N)N)NC(=O)[C@H](CCCNC(=N)N)NC(=O)[C@@H]1CCCN1C(=O)[C@@H]1CCCN1C(=O)[C@H](CCCNC(=N)N)NC(=O)[C@@H]1CCCN1C(=O)[C@H](CCCNC(=N)N)NC(=O)[C@@H]1CCCN1C(=O)[C@H](CC(C)C)NC(=O)[C@H](Cc1ccc(O)cc1)NC(=O)[C@@H]1CCCN1C(=O)[C@@H]1CCCN1C(=O)[C@H](CCCCN)NC(=O)[C@H](CC(=O)O)NC(=O)[C@@H](N)C(C)C)[C@@H](C)CC [SEQ ID NO. 58] (H-VDKPPYLPRPRPPRRIYNR-NHPr) | 2 h | – | – | –
17 | H-VDKPPYLPRPRPRPRIYNR-NH2 [compound 59] | – | – | 8 µg/mL | 16 µg/mL
18 | H-VDKPPYLPRPRPPRRAYNR-NH2 [compound 44] | – | – | 16 µg/mL | 16 µg/mL
19 | CC[C@H](C)[C@H](NC(=O)[C@H](CCCNC(=N)N)NC(=O)[C@H](CCCNC(=N)N)NC(=O)[C@@H]1CCCN1C(=O)[C@@H]1CCCN1C(=O)[C@@H]1C[C@@H](O)CN1C(=O)[C@@H]1CCCN1C(=O)[C@H](CCCNC(=N)N)NC(=O)[C@@H]1CCCN1C(=O)[C@H](CC(C)C)NC(=O)[C@H](Cc1ccc(O)cc1)NC(=O)[C@@H]1CCCN1C(=O)[C@@H]1CCCN1C(=O)[C@H](CCCCN)NC(=O)[C@H](CC(=O)O)NC(=O)[C@@H](N)C(C)C)C(=O)N[C@@H](Cc1ccc(O)cc1)C(=O)N[C@@H](CC(N)=O)C(=O)N[C@@H](CCCNC(=N)N)C(=O)O [compound 3] (H-VDKPPYLPRP[Hyp]PPRRIYNR-OH) | – | – | 128 µg/mL (≈ 54.5 µM) | 32 µg/mL (≈ 13.6 µM)
20 | H-VDKPPYLPRPRPPRPIRV-OH [compound 48] | – | – | 128 µg/mL | 8 µg/mL
21 | H-VDKPPYLPRPKPPRRIYNRN-OH [compound 6] | – | – | 32 µg/mL | 16 µg/mL
22 | CC[C@H](C)[C@H](NC(=O)[C@H](Cc1ccc(O)cc1)NC(=O)[C@H](CC(N)=O)NC(=O)[C@@H](N)CCCN)C(=O)N1C[C@H](O)C[C@H]1C(=O)N[C@@H](CCCNC(=N)N)C(=O)N1CCC[C@H]1C(=O)N1CCC[C@H]1C(=O)N[C@@H](CCCNC(=N)N)C(=O)N1CCC[C@H]1C(=O)N[C@@H](CCCNC(=N)N)C(=O)N1CCC[C@H]1C(=O)N[C@@H](CC(C)C)C(=O)N[C@@H](Cc1ccc(O)cc1)C(=O)N1CCC[C@H]1C(=O)N1CCC[C@H]1C(=O)N[C@@H](CCCCN)C(=O)N[C@@H](CC(=O)O)C(=O)N[C@H](C(N)=O)C(C)C [compound 114] (H-[Orn]NYI[Hyp]RPPRPRPLYPPKDV-NH2) | – | – | >256 µg/mL | 128 µg/mL (≈ 55.5 µM)
23 | CC[C@H](C)[C@H](NC(=O)[C@H](CCCNC(=N)N)NC(=O)[C@H](CCCNC(=N)N)NC(=O)[C@@H]1CCCN1C(=O)[C@@H]1CCCN1C(=O)[C@H](CCCNC(=N)N)NC(=O)[C@@H]1CCCN1C(=O)[C@H](CCCNC(=N)N)NC(=O)[C@@H]1CCCN1C(=O)[C@H](CC(C)C)NC(=O)[C@H](Cc1ccc(O)cc1)NC(=O)[C@@H]1CCCN1C(=O)[C@@H]1CCCN1C(=O)[C@H](CCCCN)NC(=O)[C@H](CC(=O)O)NC(=O)[C@@H](N)C(C)C)C(=O)N[C@@H](Cc1ccc(O)cc1)C(=O)N[C@@H](CC(N)=O)C(=O)N(C)[C@@H](CCCNC(=N)N)C(N)=O [compound 56] (H-VDKPPYLPRPRPPRRIYN[NMeR]-NH2; N-terminus assumed) | – | – | 8 µg/mL (≈ 3.33 µM) | 4 µg/mL (≈ 1.66 µM)
